16 compounds from patent publication US8415486B2, “IAP inhibitors” (TetraLogic Pharmaceuticals Corp., priority 2009, dated 2013) can be followed below.

Test [1] concerns ovarian cancer cell line, SK-OV-3. Briefly: SK-OV-3 cell growth inhibition (MTT, 72 hrs). It counts as cell-based. The conditions noted are these: Homo sapiens, concentration giving 50% cell survival, reported as ranges. The method, then: Compounds of the invention also were tested for their ability to inhibit the growth of an ovarian cancer cell line, SK-OV-3. A known assay previously used for measuring cell growth (as described in Hansen, M. B., Nielsen, S. E., and Berg, K. (1989) J. Immunol. Methods 119, 203-210 and incorporated herein by reference in its entirety) was used. Briefly, SK-OV-3 cells are seeded in 96-well plates in McCoy's medium containing 10% fetal bovine serum albumin (5,000 per well) and incubated overnight at 37° C. The next day, test compounds are added at various concentrations (0.003-10 μM) and the plates are incubated at 37° C. for an additional 72 hrs. This incubation time was considered to be optimal for measuring inhibitory effects of the different compounds tested. 50 microliters of 5 mg/mL MTT reagent is added to each well and the plates are incubated at 37° C. for another three (3) hours. At the end of the three (3) hour incubation period, 50 microliters of DMSO is added to each well to dissolve cells and the optical density (OD) of the wells is measured with a microplate reader (Victor^2 1420, Wallac, Finland) at 535 nm. Cell survival (CS) was calculated using the following equation: CS=(OD treated well/mean OD control wells)×100%.
The CC50 (reported in the following tables), is defined as the drug concentration that results in 50% cell survival (CS), and is derived by calculating the point where the dose-response curve crosses the 50% CS point using GraphPad Prism. The reported CC50 values are supplied as ranges (A=<0.1 μM, B=0.1 μM to 1 μM, C=>1 μM to 10 μM, D=>10 μM).

The target of test [2] is T1, XIAP BIR-3 (Homo sapiens, UniProt P98170).
T1 construct: 40 nM of the respective IAP BIR3
T1 sequence (P98170 241-356 limits assumed): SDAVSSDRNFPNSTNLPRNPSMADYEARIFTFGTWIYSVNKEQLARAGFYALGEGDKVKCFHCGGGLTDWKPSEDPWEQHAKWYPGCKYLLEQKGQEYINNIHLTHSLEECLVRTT
The test is described as follows: Fluorescence polarization binding to XIAP BIR-3 with labeled peptide AbuRPF-K(5-Fam)-NH2. The conditions noted are these: 40 nM BIR3, 5 nM labeled peptide, reported as ranges. The method, then:
(§1) The binding affinities of the compounds are reported as a KD value (μM). Briefly, various concentrations of test peptides were mixed with 5 nM of the fluorescently labeled peptide (i.e., a mutated N-terminal Smac peptide—AbuRPF-K(5-Fam)-NH2) and 40 nM of the respective IAP BIR3 for 15 min at RT in […] of 0.1M Potassium Phosphate buffer, pH 7.5 containing 100 mg/ml bovine g-globulin. Following incubation, the polarization values (mP) were measured on a Victor2V (available from PerkinElmer Life Sciences) using a 485 nm excitation filter and a 520 nm emission filter. The reported binding affinities (KD values) are supplied as ranges (A=<0.1 μM, B=0.1 μM to 1 μM, C=>1 μM to 10 μM, D=>10 μM).
In general terms: In fluorescence polarisation assays a small probe gives low polarisation when free and higher when bound to something large.

The target of test [3] is T2, cIAP-1 BIR-3 (Homo sapiens, UniProt Q13490).
T2 construct: 40 nM of the respective IAP BIR3
T2 sequence (Q13490 253-363 limits assumed): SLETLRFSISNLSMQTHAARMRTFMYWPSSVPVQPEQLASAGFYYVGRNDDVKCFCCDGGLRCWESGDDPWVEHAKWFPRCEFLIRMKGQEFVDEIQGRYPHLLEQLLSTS
Briefly: Fluorescence polarization binding to cIAP-1 BIR-3 with labeled peptide AbuRPF-K(5-Fam)-NH2. The conditions noted are these: 40 nM BIR3, 5 nM labeled peptide, reported as ranges, read-out: KD (c-IAP-1 BIR3). The method, then:
as §1

Structures are written as SMILES.

Broadly, the CC50 is the concentration at which the toxic effect on the cells reaches its halfway point. The low end stands for harm at low concentration, the high end for better tolerance by the cells. The Kd is the free concentration of one partner at which half of the binding sites on the other are occupied at equilibrium, for simple one-to-one binding.

Take `CN[C@@H](C)C(=O)N[C@H](C(=O)N1CC[C@@H]2[C@H]1[C@@H](OCc1ccc(F)cc1)CN2C(=O)OC(C)(C)C)C(C)(C)C` [Example 34, 4-[3,3-Dimethyl-2-(2-methylamino-propionylamino)-butyryl]-3-(4-fluoro-benzyloxy)-hexahydro-pyrrolo[3,2-b]pyrrole-1-carboxylic acid tert-butyl ester]: in test [1], the cytotoxic concentration (CC50) was < 100 nM. Besides, the Kd in test [2] and in test [3] was < 100 nM throughout.
As for `CN[C@@H](C)C(=O)N[C@H](C(=O)N1CC[C@H]2NC[C@H](OCc3ccc(F)cc3)[C@H]21)C(C)(C)C` [Example 35, N-{1-[6-(4-Fluoro-benzyloxy)-hexahydro-pyrrolo[3,2-b]pyrrole-1-carbonyl]-2,2-dimethyl-propyl}-2-methylamino-propionamide ester], in test [1], the CC50 is < 100 nM. For the same compound, the dissociation constant Kd in test [2] was 100 to 1000 nM; in test [3], < 100 nM.
`CNC(=O)N1C[C@H](OCc2ccc(F)cc2)[C@@H]2[C@H]1CCN2C(=O)[C@@H](NC(=O)[C@H](C)NC)C(C)(C)C` [Example 36, 4-[3,3-Dimethyl-2-(2-methylamino-propionylamino)-butyryl]-3-(4-fluoro-benzyloxy)-hexahydro-pyrrolo[3,2-b]pyrrole-1-carboxylic acid methylamide]: the CC50 in test [1] was < 100 nM. Moreover, the Kd in test [2] was 100 to 1000 nM; in test [3], < 100 nM.
`CN[C@@H](C)C(=O)N[C@H](C(=O)N1CC[C@@H]2[C@H]1[C@@H](OCc1ccc(F)cc1)CN2C(=O)NC(C)C)C(C)(C)C` [Example 37, 4-[3,3-Dimethyl-2-(2-methylamino-propionylamino)-butyryl]-3-(4-fluoro-benzyloxy)-hexahydro-pyrrolo[3,2-b]pyrrole-1-carboxylic acid isopropylamide]: in test [1], the half-maximal cytotoxic concentration (CC50) is < 100 nM. In addition, the dissociation constant Kd in test [2] and in test [3] was < 100 nM in each case.
Consider `CN[C@@H](C)C(=O)N[C@H](C(=O)N1CC[C@@H]2[C@H]1[C@@H](OCc1ccc(F)cc1)CN2S(=O)(=O)CC(C)C)C(C)(C)C` [Example 38, N-{1-[6-(4-Fluoro-benzyloxy)-4-(2-methyl-propane-1-sulfonyl)-hexahydro-pyrrolo[3,2-b]pyrrole-1-carbonyl]-2,2-dimethyl-propyl}-2-methylamino-propionamide], for which, in test [1], the CC50 is < 100 nM. Besides, the Kd in test [2] and in test [3] was < 100 nM throughout.
Consider `CN[C@@H](C)C(=O)N[C@H](C(=O)N1CC[C@@H]2[C@H]1[C@@H](OCc1ccc(F)cc1)CN2C(=O)CC(C)C)C(C)(C)C` [Example 39, N-{1-[6-(4-Fluoro-benzyloxy)-4-(3-methyl-butyryl)-hexahydro-pyrrolo[3,2-b]pyrrole-1-carbonyl]-2,2-dimethyl-propyl}-2-methylamino-propionamide], for which, in test [1], the CC50 is < 100 nM. The Kd in test [2] and in test [3] was < 100 nM each time.
Regarding `CN[C@@H](C)C(=O)N[C@H](C(=O)N1CC[C@@H]2[C@H]1[C@@H](OCc1ccc(F)cc1)CN2C(C)=O)C(C)(C)C` [Example 40, N-{1-[4-Acetyl-6-(4-fluoro-benzyloxy)-hexahydro-pyrrolo[3,2-b]pyrrole-1-carbonyl]-2,2-dimethyl-propyl}-2-methylamino-propionamide], the CC50 in test [1] was < 100 nM. Further, the dissociation constant Kd in test [2] and in test [3] was < 100 nM in each case.
With `CN[C@@H](C)C(=O)N[C@H](C(=O)N1CC[C@@H]2[C@H]1[C@@H](OCc1ccc(F)cc1)CN2C(=O)N(C)C)C(C)(C)C` [Example 41, (3S,3aS,6aR)-4-((S)-3,3-dimethyl-2((S)-2-(methylamino)propanamido)butanoyl)-3-(4-fluorobenzyloxy)-N,N-dimethylhexahydropyrrolo[3,2-b]pyrrole-1(2H)-carboxamide], in test [1], the cytotoxic concentration (CC50) was < 100 nM. Moreover, the Kd in test [2] and in test [3] was < 100 nM in each case.
For the compound `CN[C@@H](C)C(=O)N[C@H](C(=O)N1CC[C@@H]2[C@H]1[C@@H](OCc1ccc(F)cc1)CN2C(=O)C(C)=O)C(C)(C)C` [Example 42, N-{1-[6-(4-Fluoro-benzyloxy)-4-(2-oxo-propionyl)-hexahydro-pyrrolo[3,2-b]pyrrole-1-carbonyl]-2,2-dimethyl-propyl}-2-methylamino-propionamide], in test [1], the CC50 is < 100 nM. For the same compound, the dissociation constant (Kd) in test [2] and in test [3] was < 100 nM each time.
`CN[C@@H](C)C(=O)N[C@H](C(=O)N1CC[C@@H]2[C@H]1[C@@H](OCc1ccc(F)cc1)CN2C1CCOCC1)C(C)(C)C` [Example 43, (S)—N—((S)-1-((3aR,6S,6aS)-6-(4-fluorobenzyloxy)-4-(tetrahydro-2H-pyran-4-yl)hexahydropyrrolo[3,2-b]pyrrol-1(2H)-yl)-3,3-dimethyl-1-oxobutan-2-yl)-2-(methylamino)propanamide]: in test [1], the 50% cytotoxic concentration (CC50) was < 100 nM. The equilibrium dissociation constant (Kd) in test [2] is 100 to 1000 nM; in test [3], < 100 nM.
For the compound `CN[C@@H](C)C(=O)N[C@H](C(=O)N1CC[C@@H]2[C@H]1[C@@H](OCc1ccc(F)cc1)CN2C1CCCC1)C(C)(C)C` [Example 44, (S)—N—((S)-1-((3aR,6S,6aS)-4-cyclopentyl-6-(4-fluorobenzyloxy)hexahydropyrrolo[3,2-b]pyrrol-1(2H)-yl)-3,3-dimethyl-1-oxobutan-2-yl)-2-(methylamino) propanamide], the CC50 in test [1] is < 100 nM. Further, the dissociation constant (Kd) in test [2] is 100 to 1000 nM; in test [3], < 100 nM.
For the compound `CN[C@@H](C)C(=O)N[C@H](C(=O)N1CC[C@@H]2[C@H]1[C@@H](OCc1ccc(F)cc1)CN2c1ncccn1)C(C)(C)C` [Example 45, (S)—N—((S)-1-((3aR,6S,6aS)-6-(4-fluorobenzyloxy)-4-(pyrimidin-2-yl)hexahydropyrrolo[3,2-b]pyrrol-1(2H)-yl)-3,3-dimethyl-1-oxobutan-2-yl)-2-(methylamino)propanamide], the CC50 in test [1] is < 100 nM. The Kd in test [2] was 100 to 1000 nM; in test [3], < 100 nM.
For `CNC(C)C(=O)NC(C(=O)N1CCC2C1C(OC(=O)NCc1ccccc1)CN2C(=O)NC(C)C)C(C)(C)C` (stereo not drawn) [Example 46, Benzyl-carbamic acid 4-[3,3-dimethyl-2-(2-methylamino-propionylamino)-butyryl]-1-isopropylcarbamoyl-octahydro-pyrrolo[3,2-b]pyrrol-3-yl ester], in test [1], the cytotoxic concentration (CC50) is < 100 nM. For the same compound, the values for the dissociation constant Kd in test [2] and in test [3] were 100 to 1000 nM and < 100 nM, respectively.
As for `CN[C@@H](C)C(=O)N[C@H](C(=O)N1CC[C@@H]2[C@H]1[C@@H](OC(=O)Nc1ccccc1)CN2C(=O)NC(C)C)C(C)(C)C` [Example 47, Phenyl-carbamic acid 4-[3,3-dimethyl-2-(2-methylamino-propionylamino)-butyryl]-1-isopropylcarbamoyl-octahydro-pyrrolo[3,2-b]pyrrol-3-yl ester], in test [1], the CC50 is < 100 nM. Moreover, the Kd is 100 to 1000 nM in test [2] and < 100 nM in test [3].
`CN[C@@H](C)C(=O)N[C@H](C(=O)N1CC[C@@H]2[C@H]1[C@@H](OC(=O)N(c1ccccc1)c1ccccc1)CN2C(=O)NC(C)C)C(C)(C)C` [Example 48, Diphenyl-carbamic acid 4-[3,3-dimethyl-2-(2-methylamino-propionylamino)-butyryl]-1-isopropylcarbamoyl-octahydro-pyrrolo[3,2-b]pyrrol-3-yl ester]: the CC50 in test [1] lay within 100 to 1000 nM. The Kd in test [2] was 100 to 1000 nM; in test [3] it was < 100 nM.
Turning to `CN[C@@H](C)C(=O)N[C@H](C(=O)N1CC[C@@H]2[C@H]1[C@@H](OC(=O)Nc1cccc3ccccc13)CN2C(=O)NC(C)C)C(C)(C)C` [Example 49, Naphthalen-1-yl-carbamic acid 4-[3,3-dimethyl-2-(2-methylamino-propionylamino)-butyryl]-1-isopropylcarbamoyl-octahydro-pyrrolo[3,2-b]pyrrol-3-yl ester], the CC50 in test [1] is < 100 nM. Besides, the Kd in test [2] was 100 to 1000 nM; in test [3] it was < 100 nM.
